US12486231B2, “Targeted nitroxide compounds and their use in treating ferroptosis-related diseases” (University of Pittsburgh—Of the Commonwealth System of …, priority 2019, dated 2025)
Read-outs that look alike come from different tables or passages of the source.

Assays:
HT-1080 cells = assay: Protection against Erastin-induced ferroptosis in HT-1080 cells (CellTiter-Glo); type: cell-based; conditions: for Erastin-induced ferroptosis in HT-1080 cells: % activity remaining at 1 μM / % Activity remaining (value at a concentration of 1 μM): compound 1 μM; for % Activity remaining (value at a concentration of 1 μM): relative to vehicle and Erastin samples
Procedure: Compounds 6c, 6e, 6f, and 6i, as described above, were tested at a concentration of 1 μM, yielding values of 6c (85%), 6e (80%), 6f (77%), 6g (16%), 6h (78%), 6i (57%), and 6j (83%). For comparison, JP4-039 yielded a value of 56%. […] Briefly, 200 μL of a 5,000 cell/mL solution of HT-1080 cells were incubated for 24 h at 37° C. at 5% CO2, 95% humidity. The compounds were dissolved in DMSO and diluted to desired testing concentration. Compounds (1 μL) were added to culture medium (1 mL) containing 10 μM Erastin and incubated at 37° C., 5% CO2, 95% humidity for 24 h. CellTiter-Glo® reagent was added and the plate was incubated for 20 min at rt, sealed, centrifuged (1 min) at 1,000 rpm, shaken (1 min), and read in Enspire. % Activity remaining was determined as a function of vehicle sample and Erastin sample.
B. Compounds 6a-6n were tested for their protection against Erastin-induced ferroptosis in HT-1080 cells. Briefly, 200 μL of a 5,000 cell/mL solution of HT-1080 cells were incubated for 24 h at 37° C. at 5% CO2, 95% humidity. The compounds were dissolved in DMSO and diluted to desired testing concentration. Compounds (1 μL) were added to culture medium (1 mL) containing 10 μM Erastin and incubated at 37° C., 5% CO2, 95% humidity for 24 h. CellTiter-Glo® reagent was added and the plate was incubated for 20 min at rt, sealed, centrifuged (1 min) at 1,000 rpm, shaken (1 min), and read in Enspire. % Activity remaining was determined as a function of vehicle sample and Erastin sample.

[1] = 10 μM Erastin, 24 h, HT-1080 cells
[2] = 10 μM Erastin, 24 h, HT-1080 cells, read-out: EC50

Molecule	logP (log P)	Erastin-induced ferroptosis in HT-1080 cells: % activity remaining at 1 μM (HT-1080 cells; [1]) [%]	% Activity remaining (value at a concentration of 1 μM) (HT-1080 cells; [1]) [%]	log P (log P)	further results
CC(C)(C)OC(=O)N[C@@H](/C=C/CC(=O)NC1CC(C)(C)N([O])C(C)(C)C1)c1ccccc1 [6b, tert-Butyl (S,E)-(5-((1-oxy-2,2,6,6-tetramethylpiperidin-4-yl)amino)-5-oxo-1-phenylpent-2-en-1-yl)carbamate]	2.92	–	–	–	EC50 (HT-1080 cells; Homo sapiens, HT-1080, 24 h): 0.948 µM
CC(C)C[C@@H](/C=C/CNC(=O)C1CC(C)(C)N([O])C(C)(C)C1)NC(=O)OC(C)(C)C [6i, tert-Butyl (S,E)-(1-(1-oxy-2,2,6,6-tetramethylpiperidine-4-carboxamido)-6-methylhept-2-en-4-yl)carbamate]	3.15	57	57	–	–
CC(C)C[C@@H](/C=C/[C@H](Cc1ccccc1)C(=O)NC1CC(C)(C)N(O)C(C)(C)C1)NC(=O)OC(C)(C)C [6j, tert-Butyl ((4S,7S,E)-7-benzyl-8-((1-oxy-2,2,6,6-tetramethylpiperidin-4-yl)amino)-2-methyl-8-oxooct-5-en-4-yl)carbamate]	4.93	83	83	–	EC50 (HT-1080 cells; Homo sapiens, 10 μM Erastin, 24 h, HT-1080 cells, read-out: EC50): 0.207 µM; EC50 (HT-1080 cells; Homo sapiens, 10 μM Erastin, 24 h, HT-1080 cells, read-out: Erastin-induced ferroptosis in HT-1080 cells: EC50): 0.207 µM
CC(C)C[C@@H](/C=C/[C@H](Cc1ccc(F)cc1)C(=O)NC1CC(C)(C)N(O)C(C)(C)C1)NC(=O)OC(C)(C)C [6k, tert-Butyl ((4S,7S,E)-7-(4-fluorobenzyl)-8-((1-oxy-2,2,6,6-tetramethylpiperidin-4-yl)amino)-2-methyl-8-oxooct-5-en-4-yl)carbamate]	5.09	–	–	–	–
CC(C)CC(C=CCC(=O)NC1CC(C)(C)N([O])C(C)(C)C1)NC(=O)OC(C)(C)C [6l, tert-Butyl (S,Z)-(8-((1-oxy-2,2,6,6-tetramethylpiperidin-4-yl)amino)-2-methyl-8-oxooct-5-en-4-yl)carbamate]	–	–	–	2.76	–
CC(C)C[C@@H](CCCC(=O)NC1CC(C)(C)N([O])C(C)(C)C1)NC(=O)OC(C)(C)C [6m, tert-Butyl (R)-(8-((1-oxy-2,2,6,6-tetramethylpiperidin-4-yl)amino)-2-methyl-8-oxooctan-4-yl)carbamate]	2.94	–	–	–	–
CCCCCCCC(=O)NC1CC(C)(C)N([O])C(C)(C)C1 [6n, N-(1-Oxy-2,2,6,6-tetramethylpiperidin-4-yl)octanamide]	2.83	–	–	–	–
tert-Butyl (S,E)-(1-(1-((1-oxy-2,2,6,6-tetramethylpiperidin-4-yl)carbamoyl)cyclopentyl)-5-methylhex-1-en-3-yl)carbamate [6f]	–	77	77	4.37	–
tert-Butyl (S,E)-(1-(1-((1-oxy-2,2,6,6-tetramethylpiperidin-4-yl)carbamoyl)cyclopropyl)-5-methylhex-1-en-3-yl)carbamate [6e]	–	80	80	3.53	EC50 (HT-1080 cells; 10 μM Erastin, 24 h, HT-1080 cells, read-out: Erastin-induced ferroptosis in HT-1080 cells: EC50): 0.958 µM
tert-Butyl (S,E)-(1-(4-((1-oxy-2,2,6,6-tetramethylpiperidin-4-yl)carbamoyl)tetrahydro-2H-pyran-4-yl)-5-methylhex-1-en-3-yl)carbamate [6g]	–	16	16	3.10	–
tert-Butyl (S,E)-(5-((1-oxy-2,2,6,6-tetramethylpiperidin-4-yl)amino)-4,4-dimethyl-5-oxo-1-phenylpent-2-en-1-yl)carbamate [6a]	–	–	–	4.19	–
tert-Butyl (S,E)-(7,7-dibenzyl-8-((1-oxy-2,2,6,6-tetramethylpiperidin-4-yl)amino)-2-methyl-8-oxooct-5-en-4-yl)carbamate [6d]	–	78	–	7.24	EC50 (HT-1080 cells; [2]): 0.173 µM
tert-Butyl (S,E)-(7-(1-oxy-2,2,6,6-tetramethylpiperidine-4-carboxamido)-2,7-dimethyloct-5-en-4-yl)carbamate [6h]	–	78	78	3.68	EC50 (HT-1080 cells; [2]): 0.576 µM
tert-Butyl (S,E)-(8-((1-oxy-2,2,6,6-tetramethylpiperidin-4-yl)amino)-2,7,7-trimethyl-8-oxooct-5-en-4-yl)carbamate [6c]	–	85	85	4.03	–
